Here are results for one substance from patent publication US20250340648A1, “COMBINATION THERAPY FOR TREATMENT OF CANCER COMPRISING ANTI-PD-L1 AND ANTI-CD73 ANTIBODIES” (MedImmune Limited, priority 2022, published 2025).

“Also recorded” adds a separate entry of the source.

For experiment [1], the system named is CT26 (colorectal) tumor cells. Nature of the experiment: CT26 syngeneic mouse tumor model. The experiment is classed as in vivo, BALB/c mice. The conditions noted are these: CT26 tumors; result in words. Here is the method:
(§1) In vivo studies were performed using 8-10 week old BALB/cAnNCrl mice (Charles River UK) or C57BL/6. Mice were housed in an AstraZeneca vivarium with access to food and water ad libidum and were cared for daily by trained personnel. Mice were acclimatized to the vivarium conditions for a week and handled according to the Home Office Animals Scientific Procedures Act, 1986, UK. All animal work was carried out under a Home Office approved project licence (PPL P49077891) and […] (RTx studies) as well as according to the institutional guidelines. BALB/c mice were subcutaneously implanted with 0.5e6 CT26 (colorectal) tumor cells. […] Tumors were measured with callipers three times a week, starting from day-5. […]
(§2) All in vivo data were collated in the Excel spreadsheets and transferred to GraphPad Prism 9.00 (GraphPad Software Inc.) for graphical representation and statistical analysis. After outlier identification and Shapiro-Wilk test for normality distribution, statistical significance was determined by One-way ANOVA followed by Dunnett's multiple comparison for comparisons of more than two groups if data were normally distributed. […] Survival studies were analysed with a log rank (Mantel-Cox) test, comparing only two survival curves at a time. […]

Experiment [2] has as its system MCA205 (fibrosarcoma) tumor cells. The experiment can be described thus: MCA205 syngeneic mouse tumor model. The experiment is classed as in vivo, C57BL/6 mice. The conditions noted are these: MCA205 tumors; result in words. Here is the method: as §1, §2
The next experiment has as its system CT26 transcriptome. The experiment can be described thus: RNAseq of treated CT26 tumors. Type of experiment: in vivo, Mus musculus. Here is the method:
Tumor tissue was flash-frozen in liquid nitrogen and stored at −80° C. at the time of collection in the animal unit and was sent to Novogene on dry ice. Tissue processing and RNA extraction was carried out by Novogene Co. by using the QIAGEN RNeasy Plus Universal kit (Qiagen, Cat. No. 73404), according to the manufacturer's protocol. Briefly, tissue samples were homogenized in QIAzol Lysis Reagent. The homogenate was then separated into aqueous and organic phases by centrifugation after addition of gDNA eliminator solution and chloroform. The upper, aqueous phase containing RNA was collected, and RNA purified using RNeasy spin columns. RNA quality check (QC) was performed by 1% Agarose gel electrophoresis, amount and purity were measured by Nanodrop, and RNA […] Number (RIN) was obtained by Bioanalyzer Agilent2100.
NEBNextR Ultra RNA library prep kit (Cat. No. E7530L) was used for library preparation for sequencing. Samples were sequenced using Illumina PE150 (50M reads/sample) bulk RNA-seq and downstream bioinformatic analysis was performed.
Reads were mapped to Mus musculus genome (mm10) genome using Star (Dobin A et al., Bioinformatics 2013; 29:15-21). Uniquely mapped reads were counted using htseq-count (Putri GH et al., Bioinformatics 2022; 38:2943-5). DESeq2 (Love M I et al., Genome Biol 2014; 15) was used to normalize counts with size factors and identify differentially expressed genes across conditions with a threshold of abs (log2FC)>1 and adjusted p value<0.05.
(§3) Gene set enrichment analysis was performed using R package ‘fGSEA’ (Korotkevich G et al., bioRxiv 2021; 060012) using hallmark gene sets from mouse MSigDB (Subramanian A. et al., Proc Natl Acad Sci USA 2005; 102:15545-50). Enrichment p-values were calculated as described in Korotkevich G et al., bioRxiv 2021; 060012 and p-values were adjusted using Benjamini-Hochberg method. Gene ontology Biological Process enrichments were identified using R package topGO (Bioconductor-topGO) with adj-pval<0.05. KEGG pathway enrichment analysis was conducted using R package clusterProfiler (Wu T. et al., The Innovation 2021; 2:100141). MCPCounter tool (Becht E. et al., Genome Biol 2016; 17:1-20) was used to estimate immune cell abundances for each sample and condition using immune gene signatures within MCPCounter.

Experiment [3] deals with adenosine pathway metabolites. Nature of the experiment: Mass Spectrometry Imaging of CT26 tumors. Type of experiment: in vivo, mouse. Here is the method: Tumors were snap frozen in liquid nitrogen immediately after resection and the frozen tissues were embedded in a HPMC/PVP hydrogel as previously described (Dannhorn A. et al., Anal Chem 2020; 92:11080-8). Sectioning was performed on a CM3050 S cryostat (Leica Biosystems, Nussloch, Germany) at a section thickness of 10 um and the tissue sections were immediately thaw mounted and dried under a stream of nitrogen and sealed in vacuum pouches to preserve the metabolic integrity of the sections. Tissue sections for DESI-MSI and IMC were thaw-mounted onto Superfrost microscope slides (VWR, Cat. No. 630-2863), whilst sections prepared for MALDI-MSI were thaw mounted onto conductive indium tin oxide (ITO) coated slides (Bruker Daltonik, Cat. No. 8237001). Polyvinylpyrrolidone (PVP) and (Hydroxypropyl) methylcellulose (HPMC) (purchased from Merck (Cat. No.PVP360; H8384). Methanol (Cat. No. 15624680), iso-pentane (Cat. No. 15692830) and isopropyl alcohol (Cat. No. 10674732) were obtained from Fisher Scientific.
DESI-MSI analysis was performed on a Q-Exactive mass spectrometer (Thermo Scientific, Bremen, Germany) equipped with an automated 2D-DESI ion source (Prosolia Inc., Indianapolis, IN, USA) operated in negative ion mode, covering the applicable mass range up to m/z of 1000, with a nominal mass resolution of 70,000. […]

The subject of experiment [4] is immune cell populations in the treated CT26 tumors. Nature of the experiment: MCP-Counter estimate of immune cell abundance from RNAseq. Further details: species or system mouse. The conditions noted are these: MCP counter on RNAseq. On the procedure:
as §3
Next we checked if the gene perturbation at this scale also led to changes in the enumeration of the cell populations. For this we estimated the abundance of immune cell populations in the treated CT26 tumors, using the MCP-Counter tool (Becht E, et al., Genome Biol 2016; 17:1-20).

[5] abbreviates: CT26 tumors vs control, abs(log2FC)>1, adjusted p<0.05.
The mark [6] stands for this setting: CT26 tumors, component added to the other parts of aCD73+aPD-L1+5FU+OHP.
Where [7] appears, read: component within aCD73+aPD-L1+5FU+OHP, not modulated in other iterations.

For “5-fluorouracil (5FU)+oxaliplatin (OHP) [5FU+OHP]”, the “tumor growth inhibition / efficacy” value in experiment [1] is given as “supressed tumor growth rates; also recorded: retarded tumor growth in a proportion of drug recipients”. The “tumor growth inhibition / efficacy” value in experiment [2] is reported as “supressed tumor growth rates; also recorded: retarded tumor growth in a proportion of drug recipients”. Also, in the experiment with CT26 transcriptome (setting [5]), the Down-regulated genes was 158 genes, the Up-regulated genes amounted to 277 genes and the “differentially expressed (DE) genes” value is given as 435 DE DE genes. Besides, the Up-regulated genes in the experiment on CT26 transcriptome (CT26 tumors vs control, abs(log2FC)>1, adjusted p<0.05, listed as FF) is 277 Up- genes. Also, in the experiment on CT26 transcriptome (setting [6]), the “genes downregulated when the named component is included in the combination” value is recorded as “IL-10, IL-1b, CXCL2, S100A8”; the “genes upregulated or notably influenced when the named component is included in the combination” value was “Interferon-gamma, TRIM6, CCL17, Granzyme B, GDF15, perforin and Lag3”. For the same substance, in the experiment on CT26 transcriptome (CT26 tumors, gene names), the individual genes downregulated entry was “CXCL2 expression was reduced; also recorded: CXCL2, IL-1b, CD103 and XCR1”; the individual genes upregulated result is “CCL3, 4, 8, 17, CXCL10, GDF15, CD8a, IFNγ, Perforin, Granzyme, Lag-3 and PD-1; also recorded: IFN-Y, CCL3, CCL8, Lag-3 and granzyme B; also recorded: elevated ARORA2 gene expression”. Besides, in the experiment with CT26 transcriptome (aCD73+aPD-L1+5FU+OHP vs the combination without the component, Abs(log2FC)>=1, Adj-pval<0.05), the “DE genes due to addition of the named component” value worked out at 546 DE genes. Besides, in the experiment with CT26 transcriptome (setting [7]), the “genes uniquely downregulated by the named component” value came to 122 genes and the “genes uniquely upregulated by the named component” value amounted to 360 genes. In addition, the “ATP abundance (MSI)” value in experiment [3] (compared to control treated tumors) was “modest increase”. In addition, the “AMP abundance (MSI)” value in experiment [3] (compared to other treatment groups) is recorded as “modest increase”. Besides, in experiment [4], the “abundance of immune cell populations in tumor” value is “increased lymphocyte representation”.
